Assay results: US20260207551A1, “PHOSPHOGLICERATE DEHYDROGENASE INHIBITORS FOR THE TREATMENT OF FIBROSIS” (CHIESI FARMACEUTICI S.P.A., priority 2022, published 2026)
Read-outs that look alike come from different tables or passages of the source.

How the values were obtained:
synthesis of 13C3-serine = assay: PK/PD model: in vivo [13C6] glucose tracing, inhibition of 13C3-serine synthesis; set-up: species or system mouse male (C57BL/6J); conditions: for inhibition at 300 mg/kg: Mus musculus
Protocol: As PHGDH catalyzes the rate-limiting step of glucose-derived serine synthesis, a pharmacokinetic/pharmacodynamic (PK/PD) experiment aimed to assess the inhibition of the synthesis of ^13C3-serine after oral administration of ^13C6-glucose was performed in mouse male (C57BL/6J).
(§1) Animals were fasted overnight before treatment. Following 0.5 h from administration of either Compound 19 at dose of 300 mg/kg or vehicle (0.5% Tween 80, 0.5% Methylcellulose in H2O), ^13C6-glucose was administered by oral gavage (2 g/kg, Merck Life Science Srl). Blood, lung, and brain samples were collected at 1 h, 6.5 h and 24.5 h after treatment with Compound 19 or vehicle.
The tissue concentration of ^13C3-serine was determined by a liquid chromatography-tandem mass spectrometry (LC/MS/MS) assay. GraphPad Prism (version 8.1.2) was used for drawing graphs and for statistical analysis. Plasma or tissue homogenate samples (tissues were homogenized with a water/acetonitrile 50/50 mixture) were extracted with 3 volumes of acetonitrile. Supernanatant was injected into HPLC system (Agilent 1260 Quaternary Pump equipped with an Agilent 1200 High Performance Autosampler SL; Agilent), using a Kinetex EVO C18 analytical column (100 A, 50×2.1 mm, 2.6 μm; Phenomenex) for the analysis of Compound 19 or an InfinityLab Poroshell 120 Hilic-Z (50×2.1 mm 2.7 μm; Agilent) for the analysis of ^13C3-serine. The mobile phases consisted of 0.1% formic acid in water (solvent A) and 0.1% formic acid in acetonitrile (solvent B); chromatographic separation was performed with gradient elution method (see conditions below): • Compound 19 (0.0-0.5 min, 10% B; 0.5-3.0 min, gradient to 90% B; 3.0-5.0 min. 90% B; 5.0-6.0 min, gradient to 10% B; 6.0-10.0 min, 10% B—flow rate: 0.4 mL/min). • S^13C3-serine (0.0-0.5 min, 95% B; 0.5-4.0 min, gradient to 60% B; 4.0-5.0 min, 60% B; 5.0-6.0 min, gradient to 95% B; 6.0-10.0 min, 95% B—flow rate: 0.4 mL/min).
Mass spectrometric analysis was performed on a linear ion trap triple quadrupole mass spectrometer (4000 Q TRAP; AB SCIEX) equipped with a turbo spray ion source; mass spectrometer was operated in positive ion mode and quantification was achieved by multiple reaction monitoring (MRM) mode. Peak integration was performed using Analyst (version 1.6.2.). GraphPad Prism (version 8.1.2) was used for drawing graphs and for statistical analysis.
After 0.5 h from administration of Compound 19a at dose of 3, 10, 30, 100 and 300 mg/kg po, Compound 19 at dose of 300 mg/kg po or vehicle po (0.5% Tween 80, 0.5% Methylcellulose in H2O), mice received ^13C6-glucose by oral gavage (2 g/kg, Merck Life Science Srl). […] Blood was withdrawn by cardiac puncture and collected in heparin tubes.

NHLFs = assay: FBS induced proliferation of NHLFs (BrdU incorporation); assay type: cell-based, Human
Protocol: Human normal lung fibroblasts (NHLFs) were purchased from Lonza (Basel, Switzerland). NHFLs were cultured in Eagle's Minimum Essential medium (EMEM) w/o serine and glycine, supplemented with 10% Fetal Bovine Serum (FBS), antibiotics (50 U/ml penicillin and 0.05 mg/ml streptomycin) and 2 mM L-glutamine, in an atmosphere of 95% air and 5% CO2 at 37° C. NHLFs cultures were used between passage 1 and 9. Before all the experiments, cells were incubated overnight in serum-free medium.
The antiproliferative activity of compounds of the present invention has been monitored measuring the incorporation of bromodeoxyuridine (BrdU), a thymidine analog of DNA, in newly synthesized DNA after treatment in lung cells. Briefly, NHLFs were seeded in 96-well and treated with different concentrations of Compound 19 and NCT-503 in EMEM medium for 1 h followed by stimulation with Fetal Bovine Serum (FBS) for 72 h at 37° C., 5% CO2. After cell treatments, 10 μl/well BrdU labeling solution was added for incorporation in proliferating cells for 2 h at 37° C., 5% CO2. After removing the culture medium, the cells are fixed, and the DNA is denatured by adding FixDenat followed by incubation with 100 μl/well Anti-BrdU-POD for detection. The reaction product is quantified by measuring the absorbance at the respective wavelength using a scanning multiwell spectrophotometer (ELISA reader).

[1] = Plasma and tissue exposure in PK/PD model; assay type: in vivo, mouse male (C57BL/6J); conditions: male, C57BL/6J, mouse, 300 mg/kg, 1 h, 6.5 h and 24.5 h
Protocol: as §1
The tissue concentration of ^13C3-serine was determined by a liquid chromatography-tandem mass spectrometry (LC/MS/MS) assay. GraphPad Prism (version 8.1.2) was used for drawing graphs and for statistical analysis. Plasma or tissue homogenate samples (tissues were homogenized with a water/acetonitrile 50/50 mixture) were extracted with 3 volumes of acetonitrile. Supernanatant was injected into HPLC system (Agilent 1260 Quaternary Pump equipped with an Agilent 1200 High Performance Autosampler SL; Agilent), using a Kinetex EVO C18 analytical column (100 A, 50×2.1 mm, 2.6 μm; Phenomenex) for the analysis of Compound 19 or an InfinityLab Poroshell 120 Hilic-Z (50×2.1 mm 2.7 μm; Agilent) for the analysis of ^13C3-serine. […]
Mass spectrometric analysis was performed on a linear ion trap triple quadrupole mass spectrometer (4000 Q TRAP; AB SCIEX) equipped with a turbo spray ion source; mass spectrometer was operated in positive ion mode and quantification was achieved by multiple reaction monitoring (MRM) mode. […]

With CC(C)C(C(=O)O)c1ccc(C2(NC(=O)c3cc4c(Cl)c(Cl)ccc4n3C)CCOC2)cc1 (racemic) [Compound 19, (±)-2-(4-(3-(4,5-Dichloro-1-methyl-1H-indole-2-carboxamido)tetrahydro-furan-3-yl)phenyl)-3-methylbutanoic acid] the “brain serine concentration (in words)” value (synthesis of 13C3-serine; 300 mg/kg po, 1 h) was “without reaching the statistical significance”, the “inhibition of labelled serine in brain” value (synthesis of 13C3-serine; 300 mg/kg, any timepoint (1, 6.5, 24.5 h)) was “no significant inhibition” and the inhibition at 300 mg/kg (synthesis of 13C3-serine; 300 mg/kg po, 1 h, read-out: inhibition of labelled serine in lung) was 85%. For the same molecule, the inhibition at 300 mg/kg (synthesis of 13C3-serine; 300 mg/kg po, 1 h, read-out: inhibition of labelled serine in plasma) was 87%, the inhibition at 300 mg/kg (synthesis of 13C3-serine; 300 mg/kg, at 1 and 6.5 h, read-out: inhibition of labelled serine in plasma and lung) was 70 to 85% and the IC50 (NHLFs; Homo sapiens, NHLF, FBS 72 h, confidence interval in brackets, NA: not active, read-out: FBS induced proliferation (pIC50-C.I.) (converted)) was 631 nM. The “cell proliferation induced by serum treatment (FIG. 3)” value (NHLFs; NHLFs, 72 h) was “able to reduce the cell proliferation”, the Kp ([1]; brain / plasma, read-out: mean brain/plasma ratio) was 0.01 and the Kp ([1]; lung / plasma, read-out: mean lung/plasma ratio) was 0.4.
